Source: paper PMC7370100, “In Vitro Assessment of the Genotoxic Hazard of Novel Hydroxamic Acid- and Benzamide-Type Histone Deacetylase Inhibitors (HDACi)” (International Journal of Molecular Sciences, 2020)
Where two headings read alike, the source gives them in different places.

Assays:
[1] = tested on: IMR-32 neuroblastoma cells; experiment: Alamar blue assay (cell viability), IMR-32 cells; format: cell-based, human
Description: (§1) V79 hamster lung cells, which are recommended in the OECD toxicology guidelines for hazard identification (i.e., cytotoxicity and genotoxicity) of chemicals, were purchased from the German Collection of Microorganisms and Cell Cultures (DSMZ, Braunschweig, Germany). They were cultured in Dulbecco´s modified Eagle medium and Ham´s F12 medium (DMEM/F12) (PromoCell, Heidelberg, Germany) containing 10% fetal calf serum at 37 °C in a humidified atmosphere containing 5% CO2. VC8 hamster cells were defective in DNA double-strand break (DSB) repair by homologous recombination (HR) due to the lack of functional BRCA2 protein [69, 70]. VC8 cells were provided by B. Kaina (Institute of Toxicology, Mainz, Germany). Nucleotide excision repair defective XPA and CSB deficient cells were also provided by B. Kaina and were described before. They were grown in DMEM containing 10% fetal calf serum. Human neuroblastoma cells (IMR-32 and SH-SY5Y) were purchased from the German Collection of Microorganisms and Cell Cultures (DSMZ, Braunschweig, Germany) and were used as a model of malignant cells. They were grown in DMEM or RPMI (Roswell park memorial institute) medium, respectively, containing 10% fetal calf serum. If not stated otherwise, HDACi were added to the exponentially growing cells and analyses were performed 6 h to 72 h later.
(§2) Cell viability was determined using the Alamar blue assay, which reflected the mitochondrial activity. Viable cells were characterized by an effective mitochondrial metabolization of the non-fluorescent dye resazurin (Sigma, Steinheim, Germany) to fluorescent resorufin (excitation: 535 nm, emission: 590 nm). Relative viability in the untreated control was set to 100%. In addition, the Neutral red assay, which measures the integrity of lysosomal membranes, was used to monitor cytotoxicity. To this end, cells were incubated with the Neutral red solution (0.01%) in an atmosphere containing 5% CO2 for 90 min before they were fixed (1% formaldehyde/1% CaCl2). Afterwards, the Neutral red that was taken up by the cells was extracted (50% ethanol/1% of acetic acid, 15 min at room temperature (RT)) and absorbance (540 nm) was measured. If not stated otherwise, data are shown as the mean ± standard deviation (SD) of two to three independent experiments each performed in quadruplicate. Approximate IC50 (~IC50, see Supplementary Table S1) were calculated from the corresponding dose-response curves.

[2] = tested on: SH-SY5Y neuroblastoma cells; experiment: Neutral red assay (cytotoxicity), SH-SY5Y cells; format: cell-based, human
Description: as §1, §2

V79 cells [3] = experiment: Nuclear γH2AX foci and pan-staining (immunocytochemistry); format: cell-based, hamster; settings: for > 5 < 30 Foci [%] / Pan-Stained [%] / ≤ 5 Foci [%] (cells with γH2AX foci) / ≥ 30 Foci [%] / formation of nuclear γH2AX foci: 24 h; for > 5 < 30 Foci [%] / Pan-Stained [%] / ≤ 5 Foci [%] (cells with γH2AX foci) / ≥ 30 Foci [%] / gH2AX Foci / gH2AX Pan-Stain: V79; for formation of nuclear γH2AX foci: V79, in words; for gH2AX Foci / gH2AX Pan-Stain: summary grade; on gH2AX Foci: key: −: no effect; 0: weak effect; +: moderate effect; ++: strong effect; +++: very strong effect as compared to untreated controls; on gH2AX Pan-Stain: key: −: no effect; 0: weak effect; +: moderate effect; ++: strong effect; +++: very strong effect as compared to untreated controls
Description: The frequency of nuclear foci formed by S139 phosphorylated H2AX (γH2AX foci), which is a surrogate marker of DNA damage, especially DNA double-strand breaks (DSBs), was assayed by immunocytochemistry-based analysis. […] The appearance of nuclear 53BP1 foci, which is another marker of DSBs, was also determined by immunocytochemistry. Cells were fixed with 4% formaldehyde in phosphate-buffered saline (PBS) (MERCK, Darmstadt, Germany) (15 min, RT) followed by incubation with ice-cold methanol (≥20 min, −20 °C). After blocking (1 h, RT, blocking solution: 5% BSA (MERCK, Darmstadt, Germany) in PBS/0.3% Triton X-100 (Sigma, Steinheim, Germany)), incubation with γH2AX antibody and 53BP1 antibody was performed (1:500, overnight, 4 °C). After incubation with the secondary fluorescence-labeled antibody (1:500, 1 h, RT, in the dark), cells were mounted in Vectashield (Vector Laboratories (Burlingame, CA, USA)) containing DAPI. The number of nuclear γH2AX and 53BP1 foci was scored (Olympus BX43 fluorescence microscope). Only nuclei with distinct foci were evaluated and γH2AX pan-stained nuclei were excluded from the foci analyses. Data are shown as the mean ± SEM of three independent experiments with ≥50 nuclei analyzed per experimental condition.

[4] = tested on: VC8 hamster cells (BRCA1/2 defect); experiment: Viability of DSB repair defective VC8 versus wild-type V79 cells (Alamar blue); format: cell-based; settings: summary grade, V79 versus VC8; further: key: −: no effect; 0: weak effect; +: moderate effect; ++: strong effect; +++: very strong effect as compared to untreated controls
Description: as §1, §2

V79 cells [5] = experiment: Alkaline comet assay (DNA strand breaks); settings: for Mean (% DNA in tail) / DNA strand breaks (comet assay): 24 h; for Mean (% DNA in tail) / Comet Assay: V79; for Mean (% DNA in tail): untreated control 16.8; for DNA strand breaks (comet assay): V79, in words; for Comet Assay: summary grade
Description: The formation of DNA strand breaks and apurinic/apyrimidinic sites was monitored employing the alkaline comet assay [87], which is part of the OECD guideline of in vivo genotoxicity testings and detects DNA strand breaks (DNA single- and double-strand breaks) and alkali-labile sites [87]. Briefly, after aspiration of the medium and trypsinization, cells were mixed with 0.5% melting agarose and transferred onto agarose-coated (1.5%) slides. After lysis in alkaline buffer (pH 10) (1 h, 4 °C, light protection) and unwinding of the DNA in precooled lysis buffer (pH >13) (20 min, 4 °C, light protection), electrophoresis was performed (electric current: 300 mA constant; 1 V/cm). After neutralization in salt buffer (pH 7.5) and staining with propidium iodide solution (50 µg/mL), comets were evaluated by fluorescence microscopy. Quantification of migrated DNA was performed with TriTek Comet Score™ software Version 1.5, evaluating ≥50 cells per condition (blinded assessment). […] Fold increase in tail intensities of treated cells were calculated by relating the % DNA in tail of treated cells to that of the corresponding untreated controls, which were set to 1.0 (see Figure 2B).

V79 cells [6] = experiment: Cell cycle distribution / SubG1 fraction by flow cytometry; format: cell-based, hamster; settings: 24 h, in words
Description: For flow cytometry-based analysis of cell cycle distribution, cells were trypsinized and combined with floating cells present in the medium. Following fixation with ice-cold ethanol (80%) (≥1 h, −20 °C), cells were pelleted (1000× g, 10 min, 4 °C) and suspended in phosphate-buffered saline (PBS). DNase-free RNase A (Serva, Heidelberg, Germany) was added (2 μg/mL, 1 h at RT). Nuclei were stained with propidium iodide (36.7 μg/mL Sigma, Steinheim, Germany) and analysis was performed using BD Accuri™C6 flow cytometer (BD, Franklin Lakes, NJ, USA).

[7] = 24 h, approximate IC50, read-out: IC50 - 24 h Treatment, IMR-32
[8] = 72 h, approximate IC50, read-out: IC50 - 72 h Treatment, IMR-32
[9] = 24 h, approximate IC50, read-out: IC50 - 24 h Treatment, SH-SY5Y
[10] = 72 h, approximate IC50, read-out: IC50 - 72 h Treatment, SH-SY5Y

| SMILES | IC50 [1, 7] [nM] | IC50 [1, 8] [nM] | IC50 [2, 9] [nM] | > 5 < 30 Foci [%] (V79 cells [3]; 10 µM) | Pan-Stained [%] (V79 cells [3]; 10 µM) | ≤ 5 Foci [%] (cells with γH2AX foci) (V79 cells [3]; 10 µM) | ≥ 30 Foci [%] (V79 cells [3]; 10 µM) | > 5 < 30 Foci [%] (V79 cells [3]; 50 µM) | Pan-Stained [%] (V79 cells [3]; 50 µM) | ≤ 5 Foci [%] (cells with γH2AX foci) (V79 cells [3]; 50 µM) | ≥ 30 Foci [%] (V79 cells [3]; 50 µM) | formation of nuclear γH2AX foci (V79 cells [3]) | gH2AX Foci (V79 cells [3]) | gH2AX Pan-Stain (V79 cells [3]) | DSB Repair def. Cells [4] | Mean (% DNA in tail) (V79 cells [5]; 10 µM) | Mean (% DNA in tail) (V79 cells [5]; 50 µM) | DNA strand breaks (comet assay) (V79 cells [5]) | Comet Assay (V79 cells [5]) | percentage of V79 cells in the SubG1 fraction (V79 cells [6]) | other results |
| --- | --- | --- | --- | --- | --- | --- | --- | --- | --- | --- | --- | --- | --- | --- | --- | --- | --- | --- | --- | --- | --- |
| CN(C)c1ccc(C(=O)N(CC(=O)NCc2ccccc2)Cc2ccc(C(=O)NO)cc2)cc1 [DDK137] | 600 | 200 | > 50000 | 40.1 | 0.0 | 56.4 | 3.5 | 36.8 | 14.1 | 31.3 | 17.8 | stimulate the formation of γH2AX foci only at a high dose of 50 µM | + | + | + | 6.9 | 17.3 | did not cause a significant rise in DNA damage | − |  | IC50 [2, 10]: 1000 nM; > 5 < 30 Foci [%] (V79 cells [3]; 2 µM): 38.5%; Pan-Stained [%] (V79 cells [3]; 2 µM): 0.0%; ≤ 5 Foci [%] (cells with γH2AX foci) (V79 cells [3]; 2 µM): 60.8%; ≥ 30 Foci [%] (V79 cells [3]; 2 µM): 0.7%; Mean (% DNA in tail) (V79 cells [5]; 2 µM): 15.1 % DNA in tail |
| Nc1ccccc1NC(=O)c1ccc(CNC(=O)OCc2cccnc2)cc1 [Entinostat, entinostat, reference compound] |  |  |  | 43.6 | 0.4 | 45.2 | 10.8 | 39.4 | 3.2 | 45.3 | 12.2 | relatively low number of γH2AX foci | + | + | + | 34.5 | 37.8 | only promoted the formation of DNA strand breaks | − | did not increase the percentage of cells present in the SubG1 fraction | IC50 ([1]; Homo sapiens, IMR-32, 24 h, approximate IC50, read-out: IC50 - 24 h Treatment, IMR-32): 50000 nM; IC50 ([1]; Homo sapiens, IMR-32, 72 h, approximate IC50, read-out: IC50 - 72 h Treatment, IMR-32): 2000 nM; IC50 ([2]; Homo sapiens, SH-SY5Y, 24 h, approximate IC50, read-out: IC50 - 24 h Treatment, SH-SY5Y): > 50000 nM; IC50 ([2]; Homo sapiens, SH-SY5Y, 72 h, approximate IC50, read-out: IC50 - 72 h Treatment, SH-SY5Y): 9000 nM; > 5 < 30 Foci [%] (V79 cells [3]; 100 µM): 47.2%; Pan-Stained [%] (V79 cells [3]; 100 µM): 4.6%; ≤ 5 Foci [%] (cells with γH2AX foci) (V79 cells [3]; 100 µM): 41.7%; ≥ 30 Foci [%] (V79 cells [3]; 100 µM): 6.5%; Mean (% DNA in tail) (V79 cells [5]; 100 µM): 34.9 % DNA in tail |
| Nc1ccc(F)cc1NC(=O)c1ccc(CONC(=O)C=Cc2cccnc2)cc1 [MPK77] | 3000 | 2000 | > 50000 | 49.9 | 0.0 | 49.6 | 0.6 | 41.5 | 0.0 | 58.6 | 0.0 | relatively low number of γH2AX foci | + | 0 | + | 34.0 | 48.1 | significant increase in DNA strand breaks at all concentrations tested | + | neither induced cell death as reflected by an increase in the SubG1 population | IC50 [2, 10]: 23000 nM; > 5 < 30 Foci [%] (V79 cells [3]; 100 µM): 47.9%; Pan-Stained [%] (V79 cells [3]; 100 µM): 10.2%; ≤ 5 Foci [%] (cells with γH2AX foci) (V79 cells [3]; 100 µM): 35.5%; ≥ 30 Foci [%] (V79 cells [3]; 100 µM): 6.5%; Mean (% DNA in tail) (V79 cells [5]; 100 µM): 35.5 % DNA in tail |
| O=C(CCCCCCC(=O)Nc1ccccc1)NO [Vorinostat, vorinostat, reference compound] |  |  |  | 18.5 | 3.2 | 75.9 | 2.4 | 34.2 | 26.7 | 23.6 | 15.6 |  | + | ++ | ++ | 8.0 | 13.2 | did not cause a significant rise in DNA damage | − | moderate increase of the percentage of V79 cells present in the SubG1 fraction | > 5 < 30 Foci [%] (V79 cells [3]; 2 µM): 54.7%; Pan-Stained [%] (V79 cells [3]; 2 µM): 0.0%; ≤ 5 Foci [%] (cells with γH2AX foci) (V79 cells [3]; 2 µM): 39.3%; ≥ 30 Foci [%] (V79 cells [3]; 2 µM): 6.0%; Mean (% DNA in tail) (V79 cells [5]; 2 µM): 14.0 % DNA in tail |
